Results on nine compounds are retold here after patent US11999727B2 (Tango Therapeutics, Inc., priority 2020, dated 2024).

SMILES strings stand for the structures. Where two headings read alike, the source gives them in different places.

Assay [1] addresses T1, PRMT5 (Homo sapiens, UniProt O14744).
T1 construct: purchased Viva (custom protein)
The assay can be described thus: PRMT5 biochemical IC50 assay with MTA as cofactor. Conditions: PRMT5, MTA as cofactor; read-out: MTA IC50.

In assay [2] the target is T1, PRMT5. The assay can be described thus: PRMT5 biochemical IC50 assay with no cofactor. Conditions: PRMT5, no cofactor; read-out: No Cofactor/rel IC50. The text has this:
Table 1 indicates IC50 values (μM) against PRMT5 for exemplary compounds in the presence of SAM as cofactor, with no cofactor, and with MTA as cofactor, respectively (columns 4-6). […] Ki values can be calculated from the IC50 values as described in the Examples section. As detailed in the Examples section, for the assay performed in the presence of SAM, IC50=Ki×1.5 (Ki=IC50/1.5).

Assay [3] has as its system HAP1 MTAP-intact cell line. The assay is described as follows: SDMA in-cell western assay, HAP1 MTAP-intact. In kind it is cell-based. Conditions: Homo sapiens, HAP1, SDMA in-cell western, HAP1 MTAP-intact; read-out: MTAP HAP1 intact IC50. The procedure, abridged: (§1)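 MTAP-null vs endogenous-MTAP HAP1 isogenic cells; in-cell western SDMA readout; IC50 per line.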
Assay [4] has as its system HAP1 MTAP-deleted cell line. The assay is described as follows: SDMA in-cell western assay, HAP1 MTAP-deleted. In kind it is cell-based. As to conditions: for IC50: Homo sapiens, HAP1, SDMA in-cell western, HAP1 MTAP-deleted; for MTAP intact/deleted ratio: SDMA in-cell western. The procedure, abridged:
as §1

Assay [5] has as its target T1, PRMT5. The assay can be described thus: PRMT5 biochemical IC50 assay with SAM as cofactor. Conditions: PRMT5, SAM as cofactor; read-out: SAM IC50.
Setting [6] is: read-out: HAP 1 MTAP deleted IC50.
Where [7] appears, read: IC50 ratio HAP1 MTAP-intact / HAP1 MTAP-deleted.
Setting [8] is: read-out: HAP1 MTAP deleted IC50.
Setting [9] is: IC50 ratio HAP1 MTAP-intact vs HAP1 MTAP-deleted.

T1 sequence (O14744 whole entry): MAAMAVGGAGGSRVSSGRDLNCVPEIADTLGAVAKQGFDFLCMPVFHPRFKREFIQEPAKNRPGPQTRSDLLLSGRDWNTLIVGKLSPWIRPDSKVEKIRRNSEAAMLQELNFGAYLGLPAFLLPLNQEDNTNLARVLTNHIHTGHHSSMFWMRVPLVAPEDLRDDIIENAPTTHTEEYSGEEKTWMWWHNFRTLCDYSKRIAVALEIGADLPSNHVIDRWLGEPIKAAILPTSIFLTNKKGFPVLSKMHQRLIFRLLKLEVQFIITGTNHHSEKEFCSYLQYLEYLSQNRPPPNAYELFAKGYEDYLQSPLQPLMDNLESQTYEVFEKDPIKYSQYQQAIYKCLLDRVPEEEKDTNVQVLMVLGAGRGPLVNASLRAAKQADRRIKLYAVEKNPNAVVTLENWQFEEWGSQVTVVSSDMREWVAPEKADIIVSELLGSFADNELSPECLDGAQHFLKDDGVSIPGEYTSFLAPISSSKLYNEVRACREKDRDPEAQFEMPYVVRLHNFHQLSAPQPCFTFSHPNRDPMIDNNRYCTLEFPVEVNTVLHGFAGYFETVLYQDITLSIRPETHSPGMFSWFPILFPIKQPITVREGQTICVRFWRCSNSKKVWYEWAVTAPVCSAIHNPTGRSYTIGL
T1 sequence (Q9BQA1 whole entry partner): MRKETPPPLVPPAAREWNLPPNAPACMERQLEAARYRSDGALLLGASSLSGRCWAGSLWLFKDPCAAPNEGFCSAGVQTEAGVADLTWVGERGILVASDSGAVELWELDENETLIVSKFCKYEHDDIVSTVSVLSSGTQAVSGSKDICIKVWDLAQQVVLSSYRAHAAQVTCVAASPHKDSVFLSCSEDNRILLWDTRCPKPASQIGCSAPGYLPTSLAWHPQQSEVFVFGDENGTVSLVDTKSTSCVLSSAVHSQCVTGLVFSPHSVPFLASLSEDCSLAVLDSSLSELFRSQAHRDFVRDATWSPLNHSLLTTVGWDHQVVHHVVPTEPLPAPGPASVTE

With `Cc1cc(NC(=O)C(=O)N2C[C@H](C)CC[C@H]2c2cc[nH]n2)cnc1N` (single isomer, unassigned) [Compound 1050], the IC50 in assay [1] was above 500 nM; in assay [2] it was above 500 nM; in assay [3] it was above 1000 nM; in assay [4] (setting [6]), above 1000 nM; in assay [5], above 500 nM. Also, the MTAP intact/deleted ratio entry in assay [4] (setting [7]) was “C (an IC50 ratio of less than 3 fold)”.

Regarding `COc1ncc(NC(=O)C(=O)N2C[C@H](C)CC[C@H]2c2ccc3nn(C)cc3c2)cc1C(N)=O` (single isomer, unassigned) [Compound 1051], the IC50 was above 500 nM in assay [1]; above 500 nM in assay [2]; above 1000 nM in assay [3]; above 1000 nM in assay [4] (setting [6]); above 500 nM in assay [5]. Moreover, the MTAP intact/deleted ratio result in assay [4] (setting [7]) is on record as “B (an IC50 ratio greater than or equal to 3 fold but lower than 10 fold)”.

As for `Cc1cc(NC(=O)C(=O)N2C[C@@H](C)CC[C@H]2C23CC(C(N)=O)(C2)C3)cnc1N` (single isomer, unassigned) [Compound 1053], the IC50 in assay [1] is 50 to 500 nM; in assay [2] it was above 500 nM; in assay [3] it was above 1000 nM; in assay [4] (setting [6]), 100 to 1000 nM; in assay [5], above 500 nM. For the same compound, the MTAP intact/deleted ratio entry in assay [4] (setting [7]) is “A (an IC50 ratio greater than or equal to 10 fold)”.

Regarding `CCc1cc(NC(=O)C(=O)N2C[C@H](C)CC[C@H]2c2cc3cn[nH]c3s2)cnc1N` (single isomer, unassigned) [Compound 1055], the IC50 in assay [1] was above 500 nM; in assay [2], above 500 nM; in assay [3], above 1000 nM; in assay [4] (setting [6]), above 1000 nM; in assay [5], above 500 nM. Further, the MTAP intact/deleted ratio result in assay [4] (setting [7]) was “B (an IC50 ratio greater than or equal to 3 fold but lower than 10 fold)”.

As to `COc1ncc(NC(=O)C(=O)N2C[C@@H](C)CC[C@@H]2c2ccc3nn(C)cc3c2)cc1C(N)=O` (single isomer, unassigned) [Compound 1059], the IC50 in assay [1] was below 50 nM; in assay [2] it was 50 to 500 nM; in assay [3], above 1000 nM; in assay [4] (setting [6]) it was below 100 nM; in assay [5], 50 to 500 nM. Also, the MTAP intact/deleted ratio entry in assay [4] (setting [7]) is given as “A (an IC50 ratio greater than or equal to 10 fold)”.

`Cc1cc(NC(=O)C(=O)N2C[C@@H](C)CC[C@@H]2C23CC(C(N)=O)(C2)C3)cnc1N` (single isomer, unassigned) [Compound 1061]: the IC50 in assay [1] is above 500 nM; in assay [2] it was above 500 nM; in assay [3] it was above 1000 nM; in assay [4] (setting [8]), above 1000 nM; in assay [5], above 500 nM. In addition, in assay [4] (setting [9]), the MTAP intact/deleted ratio result is recorded as “B (an IC50 ratio greater than or equal to 3 fold but lower than 10 fold)”.

As for `COc1ncc(NC(=O)C(=O)N2C[C@H](C)C(F)(F)C[C@H]2c2ccc(F)cc2)cc1C(N)=O` (single isomer, unassigned) [Compound 1068], the IC50 in assay [1] is below 50 nM; in assay [2] it was 50 to 500 nM; in assay [3], above 1000 nM; in assay [4] (setting [8]), below 100 nM; in assay [5] it was 50 to 500 nM. Besides, the MTAP intact/deleted ratio entry in assay [4] (setting [9]) was “A (an IC50 ratio greater than or equal to 10 fold)”.

On to `Cc1cc(NC(=O)C(=O)N2C[C@H](C)CC[C@H]2C23CC(C(N)=O)(C2)C3)cnc1N` (single isomer, unassigned) [Compound 1070], for which the IC50 in assay [1] is above 500 nM; in assay [2], above 500 nM; in assay [3], above 1000 nM; in assay [4] (setting [8]) it was above 1000 nM; in assay [5], above 500 nM. Moreover, the MTAP intact/deleted ratio result in assay [4] (setting [9]) is listed as “B (an IC50 ratio greater than or equal to 3 fold but lower than 10 fold)”.

Regarding `Cc1cc(NC(=O)C(=O)N2C[C@@H](C)CC[C@@H]2c2cc[nH]n2)cnc1N` (single isomer, unassigned) [Compound 1071], the IC50 was below 50 nM in assay [1]; 50 to 500 nM in assay [2]; above 1000 nM in assay [3]; above 1000 nM in assay [4] (setting [8]); 50 to 500 nM in assay [5]. Also, the MTAP intact/deleted ratio entry in assay [4] (setting [9]) is on record as “C (an IC50 ratio of less than 3 fold)”.
